Experimental data taken from patent publication EP0114887B1, “POLYPEPTIDE” (LA JOLLA CANCER RESEARCH FOUNDATION, priority 1982, dated 1990).
Peptide text beside a SMILES is read from it.

Key:
cells [1] = experiment: Cell attachment to peptide-coupled Sepharose (agarose) beads; assay type: cell-based; conditions: coupled to cyanogen bromide-activated agarose beads (Sepharose), sterilized by autoclaving
Protocol: The four synthetic peptides as well as the 11.5-kDal fragment and a 200-kDal fragment of fibronectin were coupled to cyanogen bromide-activated Sepharose-6MB beads (Pharmacia) according to the manufacturer's instructions. The peptides were first reduced as described above and used at 8 mg of peptide per ml of Sepharose. Albumin-coated beads and beads derivatized with ethanolamine were used as controls.
The cell attachment assays were performed as described (Ruoslahti, E. et al (1981) Methods Enzymology82,803-831) with human fibroblasts or normal rat kidney (NRK) cells. Briefly, 100 I of a single- cell suspension containing […] was placed in a flat-bottom microtiter well that had been coated with one of the peptides or with fibronectin. After 1 h at 37°C, unattached cells were washed away and attached cells were fixed and stained for counting. In some experiments soluble peptide was added to the medium to determine if its presence during the attachment would have an inhibitory effect. Cell attachment to the agarose beads was performed on a layer of beads in the bottom of a round-bottom microtiter well exactly as described above.

cells [2] = experiment: Cell-attachment activity of the synthetic fragment compared with the entire polypeptide; assay type: cell-based

For `CC[C@H](C)[C@H](NC(=O)[C@H](CO)NC(=O)[C@@H](NC(=O)[C@@H]1CCCN1C(=O)[C@H](CCCCN)NC(=O)[C@H](CO)NC(=O)[C@H](CO)NC(=O)[C@H](C)NC(=O)[C@@H]1CCCN1C(=O)[C@H](CO)NC(=O)[C@H](CC(=O)O)NC(=O)CNC(=O)[C@H](CCCNC(=N)N)NC(=O)CNC(=O)[C@@H](NC(=O)[C@@H](NC(=O)[C@H](C)NC(=O)[C@@H](N)Cc1ccc(O)cc1)C(C)C)[C@@H](C)O)[C@@H](C)CC)C(=O)N[C@@H](CC(N)=O)C(=O)N[C@@H](Cc1ccc(O)cc1)C(=O)N[C@@H](CCCNC(=N)N)C(=O)N[C@H](C(=O)N[C@@H](CCC(=O)O)C(=O)N[C@H](C(=O)N[C@@H](CC(=O)O)C(=O)N[C@@H](CCCCN)C(=O)N1CCC[C@H]1C(=O)N[C@@H](CO)C(=O)N[C@@H](CCC(N)=O)C(=O)N[C@@H](CCSC)C(=O)O)[C@@H](C)CC)[C@@H](C)O` [30-residue fragment, H-Tyr-Ala-Val-Thr-Gly-Arg-Gly-Asp-Ser-Pro-Ala-Ser-Ser-Lys-Pro-IIe-Ser-IIe-Asn-Tyr-Arg-Thr-Glu-IIe-Asp-Lys-Pro-Ser-Gln-Met-OH] (H-YAVTGRGDSPASSKPISINYRTEIDKPSQM-OH), the “attachment of cells to beads” value (cells [1]) was “induces attachment of cells to the beads” and the “cell-attachment activity compared with the entire sequence” value (cells [2]) was “the same activity as the entire sequence”.
